Experimental data: PubChem BioAssay (NCI)
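Five compound concentrations were applied to cells in 96-well plates for 48 hours; endpoints were derived by simple linear interpolation of the resulting dose-response curve. At the GI50, growth is halved. TGI is the concentration that stops growth completely.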

Tests used:
Experiment in all cases: growth of human tumour cells (NCI), 48 h
MDA-MB-435 = tested on: MDA-MB-435
SF-539 CNS = tested on: SF-539 CNS
PC-3 prostate = tested on: PC-3 prostate
SW-620 colon = tested on: SW-620 colon
M14 melanoma = tested on: M14 melanoma
SF-295 CNS = tested on: SF-295 CNS
SK-MEL-2 melanoma = tested on: SK-MEL-2 melanoma
OVCAR-4 ovarian = tested on: OVCAR-4 ovarian
ACHN renal = tested on: ACHN renal
U251 CNS = tested on: U251 CNS

Row | Structure (SMILES) | TGI (MDA-MB-435) [µM] | TGI (SF-539 CNS) [µM] | TGI (PC-3 prostate) [µM] | TGI (SW-620 colon) [µM] | TGI (M14 melanoma) [µM] | TGI (SF-295 CNS) [µM] | TGI (SK-MEL-2 melanoma) [µM] | TGI (OVCAR-4 ovarian) [µM] | TGI (ACHN renal) [µM] | TGI (U251 CNS) [µM] | GI50 (MDA-MB-435) [µM] | GI50 (SF-539 CNS) [µM] | GI50 (PC-3 prostate) [µM] | GI50 (SW-620 colon) [µM] | GI50 (M14 melanoma) [µM] | GI50 (SF-295 CNS) [µM] | GI50 (SK-MEL-2 melanoma) [µM] | GI50 (OVCAR-4 ovarian) [µM] | GI50 (ACHN renal) [µM] | GI50 (U251 CNS) [µM]
1 | CN(C)CC1=Nc2cccc3cccc(c23)N1 | 38.1 | 35.9 | 32.3 | > 100 | 34.7 | > 100 | 35.5 | 26.6 | 28.2 | 32.5 | – | – | – | – | – | – | – | – | – | –
2 | CCC(=O)c1c(C(F)(F)F)n([O-])c2ccccc2[n+]1=O | 10.4 | 10.2 | 5.34 | 17.4 | 6.19 | 7.29 | > 100 | 31.2 | 3.13 | 13 | 2.41 | 2.81 | 0.629 | 2.65 | 1.7 | 1.59 | 14.9 | 5.65 | 1.09 | 2.16
3 | O=CN1N=C(c2ccc(Nc3ccnc4cc(Cl)ccc34)cc2)CC1c1ccc(Cl)cc1 (stereo not given) | 0.48 | > 100 | > 100 | > 100 | > 100 | 1.08 | > 100 | > 100 | > 100 | > 100 | 0.198 | 0.575 | 0.475 | 0.478 | 0.622 | 0.274 | 7.86 | 6.48 | 1 | 0.511
4 | O=C1NC(SCc2ccc(F)cc2)=N/C1=C/c1cccc(OCc2ccc(Cl)cc2)c1 | > 100 | 72.2 | > 100 | > 100 | > 100 | > 100 | > 100 | 4.85 | 3.87 | 19.6 | > 100 | 4.87 | > 100 | 20 | 47.4 | 4.97 | > 100 | 2.07 | 1.93 | 3.83
5 | c1ccc(/C(=N\Nc2ccc3ccccc3n2)c2ccccn2)cc1 | 16.7 | 4.57 | 55.3 | 15.3 | 4.44 | 2.13 | 7.4 | > 100 | 8.78 | 13 | 0.66 | 0.682 | 1.25 | 0.699 | 0.484 | 0.211 | 0.604 | 0.418 | 0.49 | 0.592
6 | C=C1C(=O)O[C@H]2[C@H]1CC/C(CNC(=O)/C=C/c1ccc(Cl)cc1Cl)=C\CC[C@@]1(C)O[C@@H]21 | 1.74 | 3.17 | 4.4 | 2.68 | 3.37 | 3.83 | 3.63 | 3.01 | 2.48 | 3.14 | 0.444 | 1.53 | 1.42 | 1.28 | 1.44 | 1.62 | 1.55 | 1.31 | 1.13 | 1.65
7 | CC(C)=CCc1cc(C2COc3cc4c(c(O)c3C2=O)C=CC(C)(C)O4)c(O)cc1O (stereo not given) | 33.4 | 34.3 | 24.9 | 57.3 | 26.2 | 43.5 | 31.7 | 24.2 | 32.4 | 35.7 | – | – | – | – | – | – | – | – | – | –
8 | O=C(Cn1c2ccccc2c2ccncc21)N/N=C\c1ccc2ccccc2c1 | 63.3 | 28.7 | > 100 | > 100 | 50.2 | 34.6 | 42 | 80.8 | 48.5 | 29.5 | 17.1 | 13.6 | 19 | 12.7 | 16.5 | 14.8 | 19.2 | 15.4 | 19.3 | 14.5
9 | C=C(C)C(=O)O[C@H]1CC2=CC(CC(C)=C[C@H]3OC(=O)C(=C)C13)OC2=O (stereo not given in full) | > 100 | > 100 | 53.5 | 36 | > 100 | > 100 | 72.4 | > 100 | 27.6 | > 100 | – | – | – | – | – | – | – | – | – | –
